# Experimental data reported in the NIST ThermoML archive (doi:10.1021/acs.jced.6b00673).
# Where “and” joins values, the source holds several entries; their conditions need not be identical. Equal values may be shown once. Numbers after ± are expanded uncertainties.
# Conditions: Liquid, Closed cell (Static) method
compound,measurement,setting,value
"F/C=C/C(F)(F)F [trans-1,3,3,3-tetrafluoropropene]",vapor or sublimation pressure,235.01 K,40.19 ± 1.2 kPa
same,vapor or sublimation pressure,235.17 K,40.58 ± 1.2 kPa
same,vapor or sublimation pressure,239.05 K,49.6 ± 1.2 kPa
same,vapor or sublimation pressure,239.07 K,49.6 ± 1.2 kPa and 49.61 ± 1.2 kPa
same,vapor or sublimation pressure,242.03 K,57.54 ± 1.2 kPa
same,vapor or sublimation pressure,242.04 K,57.54 ± 1.2 kPa
same,vapor or sublimation pressure,245.15 K,66.85 ± 1.2 kPa
same,vapor or sublimation pressure,245.16 K,66.94 ± 1.2 kPa and 66.9 ± 1.2 kPa
same,vapor or sublimation pressure,247.99 K,76.45 ± 1.2 kPa
same,vapor or sublimation pressure,248.02 K,76.52 ± 1.2 kPa
same,vapor or sublimation pressure,249.38 K,81.49 ± 1.2 kPa
same,vapor or sublimation pressure,250.68 K,86.48 ± 1.2 kPa
same,vapor or sublimation pressure,250.72 K,86.57 ± 1.2 kPa
same,vapor or sublimation pressure,252.24 K,92.69 ± 1.2 kPa and 92.75 ± 1.2 kPa
same,vapor or sublimation pressure,252.58 K,94.2 ± 1.2 kPa
same,vapor or sublimation pressure,256.25 K,110.47 ± 1.2 kPa
same,vapor or sublimation pressure,258.72 K,122.66 ± 1.2 kPa
same,vapor or sublimation pressure,258.74 K,122.75 ± 1.2 kPa
same,vapor or sublimation pressure,262.01 K,140.52 ± 1.2 kPa
same,vapor or sublimation pressure,264.78 K,157.04 ± 1.2 kPa
same,vapor or sublimation pressure,268.27 K,179.98 ± 1.2 kPa
same,vapor or sublimation pressure,271.72 K,205.14 ± 1.2 kPa
same,vapor or sublimation pressure,274.51 K,227.45 ± 1.2 kPa
same,vapor or sublimation pressure,277.43 K,252.66 ± 1.2 kPa
same,vapor or sublimation pressure,280.73 K,283.77 ± 1.3 kPa
same,vapor or sublimation pressure,284.07 K,318.06 ± 1.3 kPa
same,vapor or sublimation pressure,287.25 K,353.65 ± 1.3 kPa
same,vapor or sublimation pressure,290.51 K,393.03 ± 1.3 kPa
same,vapor or sublimation pressure,293.33 K,429.86 ± 1.4 kPa
same,vapor or sublimation pressure,296.67 K,476.7 ± 1.4 kPa
same,vapor or sublimation pressure,299.73 K,523.05 ± 1.4 kPa
same,vapor or sublimation pressure,302.71 K,571.25 ± 1.4 kPa
same,vapor or sublimation pressure,303.98 K,592.72 ± 1.5 kPa
same,vapor or sublimation pressure,306.42 K,635.82 ± 1.5 kPa and 635.84 ± 1.5 kPa
same,vapor or sublimation pressure,308.5 K,674.57 ± 1.5 kPa
same,vapor or sublimation pressure,311.91 K,741.32 ± 1.6 kPa and 741.51 ± 1.6 kPa
same,vapor or sublimation pressure,314.3 K,791.29 ± 1.6 kPa
same,vapor or sublimation pressure,314.31 K,791.42 ± 1.6 kPa
same,vapor or sublimation pressure,316.04 K,829.03 ± 1.7 kPa and 829.14 ± 1.7 kPa
same,vapor or sublimation pressure,318.53 K,885.61 ± 1.7 kPa
same,vapor or sublimation pressure,319.38 K,905.41 ± 1.8 kPa and 905.49 ± 1.8 kPa
same,vapor or sublimation pressure,320.96 K,943.34 ± 1.8 kPa
same,vapor or sublimation pressure,323.48 K,1006.1 ± 1.9 kPa
same,vapor or sublimation pressure,325.23 K,1051.7 ± 1.9 kPa
same,vapor or sublimation pressure,327.75 K,1119.9 ± 2 kPa
same,vapor or sublimation pressure,329.78 K,1177.5 ± 2.1 kPa
same,vapor or sublimation pressure,332.09 K,1245.2 ± 2.1 kPa
same,vapor or sublimation pressure,334.3 K,1312.8 ± 2.2 kPa
same,vapor or sublimation pressure,336.51 K,1383.2 ± 2.3 kPa
same,vapor or sublimation pressure,338.43 K,1446.6 ± 2.4 kPa
same,vapor or sublimation pressure,340.44 K,1515 ± 2.5 kPa
same,vapor or sublimation pressure,342.65 K,1593.5 ± 2.6 kPa
same,vapor or sublimation pressure,344.94 K,1678 ± 2.7 kPa
same,vapor or sublimation pressure,347.25 K,1766.4 ± 2.8 kPa
same,vapor or sublimation pressure,349.48 K,1855 ± 2.9 kPa
same,vapor or sublimation pressure,351.21 K,1926.4 ± 3 kPa
same,vapor or sublimation pressure,353.31 K,2015.3 ± 3.1 kPa
same,vapor or sublimation pressure,355.52 K,2112.5 ± 3.3 kPa
same,vapor or sublimation pressure,358.52 K,2250 ± 3.5 kPa
same,vapor or sublimation pressure,360.61 K,2349.9 ± 3.7 kPa
same,vapor or sublimation pressure,362.53 K,2444.8 ± 3.8 kPa
same,vapor or sublimation pressure,364.71 K,2556.2 ± 4 kPa
same,vapor or sublimation pressure,366.86 K,2669.6 ± 4.2 kPa
same,vapor or sublimation pressure,367.85 K,2724.3 ± 4.2 kPa
same,vapor or sublimation pressure,368.95 K,2784.2 ± 4.3 kPa
same,vapor or sublimation pressure,369.85 K,2835.5 ± 4.4 kPa
same,vapor or sublimation pressure,371.01 K,2900.6 ± 4.5 kPa
same,vapor or sublimation pressure,371.91 K,2953.8 ± 4.6 kPa
same,vapor or sublimation pressure,372.81 K,3005.5 ± 4.7 kPa
same,vapor or sublimation pressure,374.07 K,3082.4 ± 4.8 kPa
same,vapor or sublimation pressure,374.9 K,3131.7 ± 4.9 kPa
same,vapor or sublimation pressure,376.04 K,3203.1 ± 5 kPa
same,vapor or sublimation pressure,377.04 K,3265.4 ± 5.1 kPa
same,vapor or sublimation pressure,377.94 K,3323.5 ± 5.2 kPa
same,vapor or sublimation pressure,378.57 K,3364.9 ± 5.2 kPa
same,vapor or sublimation pressure,379.16 K,3402.3 ± 5.3 kPa
same,vapor or sublimation pressure,379.51 K,3425.9 ± 5.3 kPa
same,vapor or sublimation pressure,379.87 K,3450.3 ± 5.4 kPa
same,vapor or sublimation pressure,380.02 K,3459.7 ± 5.4 kPa
same,vapor or sublimation pressure,380.51 K,3493.5 ± 5.4 kPa
